Molecular target: JAK1 (recombinant purified GST-tagged catalytic domain) (Homo sapiens (Human), UniProt P23458)
Test: biochemical
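Further: biochemical assay with HTRF read-out.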

JAK1 (recombinant purified GST-tagged catalytic domain), sequence (P23458 875-1153): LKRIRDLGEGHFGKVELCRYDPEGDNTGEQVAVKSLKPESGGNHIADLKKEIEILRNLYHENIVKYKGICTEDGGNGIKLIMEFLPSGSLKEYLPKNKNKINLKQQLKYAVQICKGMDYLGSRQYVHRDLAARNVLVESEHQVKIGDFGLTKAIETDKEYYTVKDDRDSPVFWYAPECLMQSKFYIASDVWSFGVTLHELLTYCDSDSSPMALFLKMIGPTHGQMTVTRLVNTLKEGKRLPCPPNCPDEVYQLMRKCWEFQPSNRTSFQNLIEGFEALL

SMILES | IC50
N#C[C@H]1C[C@@H](C(=O)N2CCC(F)(F)C2)CC[C@@H]1n1cc(C(N)=O)c(Nc2ccc(Cl)cc2)n1 (single isomer, unassigned) [Example 35-28, 3-[(4-chlorophenyl)amino]-1-{(1S,2S,4S or 1R,2R,4R)-2-cyano-4-[(3,3-difluoropyrrolidin-1-yl)carbonyl]cyclohexyl}-1H-pyrazole-4-carboxamide] | 3 nM
N#C[C@H]1C[C@H](N2CCC2)CC[C@@H]1n1cc(C(N)=O)c(Nc2ccc(CC(F)(F)F)cc2)n1 (single isomer, unassigned) [Example 28-53, 1-[(1S,2S,4R or 1R,2R,4S)-4-azetidin-1-yl-2-cyanocyclohexyl]-3-{[4-(2,2,2-trifluoroethyl)phenyl]amino}-1H-pyrazole-4-carboxamide] | 0.4 nM
CC1(N[C@@H]2CCC(n3cc(C(N)=O)c(Nc4ccc(Cl)cc4)n3)[C@@H](C#N)C2)CC1 (single isomer, unassigned) [Example 28-206, 3-[(4-chlorophenyl)amino]-1-{(1S,2S,4R or 1R,2R,4S)-2-cyano-4-[(1-methylcyclopropyl)amino]cyclo-hexyl}-1H-pyrazole-4-carboxamide] | 12 nM
N#C[C@H]1CCCC[C@@H]1n1cc(C(N)=O)c(Nc2ccc(C(F)(F)F)cc2)n1 (single isomer, unassigned) [Example 17-105, 1-[(1S,2S or 1R,2R)-2-cyanocyclohexyl]-3-{[4-(trifluoromethyl)phenyl]amino}-1H-pyrazole-4-carboxamide] | 2 nM
CN(CCC(F)(F)F)[C@@H]1CC[C@H](n2cc(C(N)=O)c(Nc3ccc(S(=O)(=O)C(F)(F)F)cc3)n2)[C@@H](C#N)C1 (single isomer, unassigned) [Example 28-170, 1-{(1S,2S,4R or 1R,2R,4S)-2-cyano-4-[methyl(3,3,3-trifluoropropyl)amino]cyclohexyl}-3-({4-[(trifluoromethyl)sulfonyl]phen-yl]amino)-1H-pyrazole-4-carboxamide] | 11 nM
CN(CCC(F)(F)F)[C@H]1CC[C@H](n2cc(C(N)=O)c(Nc3ccc(S(=O)(=O)C(F)(F)F)cc3)n2)[C@@H](C#N)C1 (single isomer, unassigned) [Example 28-171, 1-{(1S,2S,4S or 1R,2R,4R)-2-cyano-4-[methyl(3,3,3-tri-fluoropropyl)amino]cyclohexyl}-3-({4-[(trifluoromethyl)sulfonyl]phen-yl}amino)-1H-pyrazole-4-carboxamide] | 2 nM
N#C[C@H]1C[C@H](N2CC(O)(C(F)(F)F)C2)CC[C@@H]1n1cc(C(N)=O)c(Nc2ccc(C(F)(F)F)cc2)n1 (single isomer, unassigned) [Example 28-201, 1-{(1S,2S,4R or 1R,2R,4S)-2-cyano-4-[3-hydroxy-3-(trifluoromethyl)azetidin-1-yl]cyclohexyl}-3-{[4-(trifluoromethyl)phenyl]amino}-1H-pyrazole-4-carboxamide] | 2 nM
N#C[C@H]1CCCC[C@@H]1n1cc(C(N)=O)c(Nc2ccc(F)nc2)n1 (single isomer, unassigned) [Example 17-19, 1-[(1S,2S or 1R,2R)-2-cyanocyclohexyl]-3-[(6-fluoropyridin-3-yl)amino]-1H-pyrazole-4-carboxamide] | 3 nM
N#C[C@H]1C[C@@H](N2CC(O)C2)CC[C@@H]1n1cc(C(N)=O)c(Nc2ccc(S(=O)(=O)C(F)(F)F)cc2)n1 (single isomer, unassigned) [Example 28-151, 1-[(1S,2S,4S or 1R,2R,4R)-2-cyano-4-(3-hydroxyazetidin-1-yl)cyclohexyl]-3-({4-[(trifluoro-methyl)sulfonyl]phenyl}amino)-1H-pyrazole-4-carboxamide] | 0.13 nM
CC(C)N[C@H]1CC[C@H](n2cc(C(N)=O)c(Nc3ccc(S(=O)(=O)C(F)(F)F)cc3)n2)[C@@H](C#N)C1 (single isomer, unassigned) [Example 28-174, 1-{(1S,2S,4S or 1R,2R,4R)-2-cyano-4-[(1-methylethyl)amino]cyclohexy}-3-({4-[(trifluoro-methyl)sulfonyl]phenyl}amino)-1H-pyrazole-4-carboxamide] | 0.15 nM
COCC(C)N[C@H]1CCC(n2cc(C(N)=O)c(Nc3ccc(Cl)cc3)n2)[C@@H](C#N)C1 (single isomer, unassigned) [Example 28-238, 3-[(4-chlorophenyl)amino]-1-[(1S,2S,4S or 1R,2R,4R)-2-cyano-4-{[(1S)-2-methoxy-1-methylethyl]amino}cyclohexyl]-1H-pyrazole-4-carboxamide] | 2 nM
C=C[C@]1(O)CC[C@H](n2cc(C(N)=O)c(Nc3ccc(Cl)cc3)n2)[C@@H](C#N)C1 (single isomer, unassigned) [Example 32-5, 3-[(4-chlorophenyl)amino]-1-[(1S,2S,4S or 1R,2R,4R)-2-cyano-4-ethenyl-4-hydroxycyclohexyl]-1H-pyrazole-4-carboxamide] | 3 nM
CC(C)(C(=O)NCC(F)(F)F)c1ccc(Nc2nn([C@H]3CCCC[C@@H]3C#N)cc2C(N)=O)cc1 (single isomer, unassigned) [Example 17-57, 1-[(1S,2S or 1R,2R)-2-cyanocyclohexyl]-3-[(4-{1,1-dimethyl-2-oxo-2-[(2,2,2-trifluoroethyl)amino]ethyl}phenyl)amino]-1H-pyrazole-4-carboxamide] | 0.2 nM
CN(C)[C@H]1CC[C@H](n2cc(C(N)=O)c(Nc3ccc(F)cc3)n2)[C@@H](C#N)C1 (single isomer, unassigned) [Example 28-102, 1-[(1S,2S,4S or 1R,2R,4R)-2-cyano-4-(dimethylamino)cyclohexyl]-3-[(4-fluorophenyl)amino]-1H-pyrazole-4-carboxamide] | 1 nM
CO/N=C/c1ccc(Nc2nn([C@H]3CCCC[C@@H]3C#N)cc2C(N)=O)cc1 (single isomer, unassigned) [Example 39, 1-[(1S,2S or 1R, 2R)-2-Cyanocyclohexyl]-3-({4-[(methoxyimino)methyl]phenyl}amino)-1H-pyrazole-4-carboxamide] | 0.45 nM
N#C[C@H]1C[C@H](O)CCC1n1cc(C(N)=O)c(Nc2ccnc(F)c2)n1 (mixture of isomers) [Example 15, 1-[(1S,2S,4R and 1R,2R,4S)-2-Cyano-4-hydroxycyclohexyl]-3-[(2-fluoropyridin-4-yl)amino]-1H-pyrazole-4-carboxamide] | 3 nM
N#C[C@H]1C[C@@H](N2CCC2)CC[C@@H]1n1cc(C(N)=O)c(Nc2ccc(OC(F)F)cc2)n1 (single isomer, unassigned) [Example 28-118, 1-[(1S,2S,4S or 1R,2R,4R)-4-azetidin-1-yl-2-cyanocyclohexyl]-3-{[4-(difluoromethoxy)phenyl]amino}-1H-pyrazole-4-carboxamide] | 0.5 nM
N#C[C@H]1C[C@H](N2CC3(CCC3)C2)CC[C@@H]1n1cc(C(N)=O)c(Nc2ccc(C(F)(F)F)cc2)n1 (single isomer, unassigned) [Example 28-24, 1-[(1S,2S,4R or 1R,2R,4S)-4-(2-azaspiro[3.3]hept-2-yl)-2-cyanocyclohexyl]-3-{[4-(trifluoromethyl)phenyl]amino}-1H-pyrazole-4-carboxamide] | 0.6 nM
C[C@H]1C[C@H](C)N1[C@@H]1CC[C@H](n2cc(C(N)=O)c(Nc3ccc(C(F)(F)F)cc3)n2)[C@@H](C#N)C1 (single isomer, unassigned) [Example 28-20, 1-{(1S,2S,4R or 1R,2R,4S)-2-cyano-4-[(2S,4S or 2R,4R)-2,4-dimethylazetidin-1-yl]cyclohexyl}-3-{[4-(trifluoromethyl)phenyl]amino}-1H-pyrazole-4-carboxamide] | 5 nM
CN(C)[C@H]1CC[C@H](n2cc(C(N)=O)c(Nc3ccc(Cl)cc3)n2)[C@@H](C#N)C1 (single isomer, unassigned) [Example 28-117, 3-[(4-chlorophenyl)amino]-1-[(1S,2S,4S or 1R,2R,4R)-2-cyano-4-(dimethylamino)cyclohexyl]-1H-pyrazole-4-carboxamide] | 0.55 nM
C[C@@]1(O)CC[C@H](n2cc(C(N)=O)c(Nc3ccc(Cl)cc3)n2)[C@@H](C#N)C1 (single isomer, unassigned) [Example 32-13, 3-[(4-chlorophenyl)amino]-1-[(1S,2S,4R or 1R,2R,4S)-2-cyano-4-hydroxy-4-methylcyclohexyl]-1H-pyrazole-4-carboxamide] | 3 nM
N#C[C@H]1C[C@@H](N2CCC2)CC[C@@H]1n1cc(C(N)=O)c(Nc2ccc(OC(F)F)cc2)n1 (single isomer, unassigned) [Example 28-108, 1-[(1S,2S,4S or 1R,2R,4R)-4-azetidin-1-yl-2-cyanocyclohexyl]-3-{[4-(difluoromethoxy)phenyl]amino}-1H-pyrazole-4-carboxamide] | 2 nM
N#C[C@H]1CCCC[C@@H]1n1cc(C(N)=O)c(Nc2ccc([C@H](O)C(F)(F)F)nc2)n1 (single isomer, unassigned) [Example 17-50, 1-[(1S,2S or 1R,2R)-2-cyanocyclohexyl]-3-({6-[(1S or 1R)-2,2,2-trifluoro-1-hydroxyethyl]pyridin-3-yl}amino)-1H-pyrazole-4-carboxamide] | 0.2 nM
C[C@](O)(c1ccc(Nc2nn([C@H]3CCCC[C@@H]3C#N)cc2C(N)=O)cn1)C(F)(F)F (single isomer, unassigned) [Example 17-34, 1-[(1S,2S or 1R,2R)-2-cyanocyclohexyl]-3-({6-[(1S or 1R)-2,2,2-trifluoro-1-hydroxy-1-methylethyl]pyridin-3-yl}amino)-1H-pyrazole-4-carboxamide] | 2 nM
N#C[C@@H]1CCCC[C@@H]1n1cc(C(N)=O)c(Nc2ccc(F)nc2)n1 (racemic) [Example 17-24, 1-[(1S,2R and 1R,2S)-2-cyanocyclohexyl]-3-[(6-fluoropyridin-3-yl)amino]-1H-pyrazole-4-carboxamide] | 33 nM
N#C[C@@H]1C[C@H](C(=O)N[C@@H](C2CC2)C(F)(F)F)CC[C@H]1n1cc(C(N)=O)c(Nc2ccc(Cl)cc2)n1 (single isomer, unassigned) [Example 35-16, 3-[(4-chlorophenyl)amino]-1-[(1R,2R,4R or 1S,2S,4S)-2-cyano-4-{[(1S)-1-cyclopropyl-2,2,2-trifluoroethyl]carbamoyl}cyclohexyl]-1H-pyrazole-4-carboxamide] | 9 nM
